Entries after “also recorded” stand apart in the source; their conditions may differ.
Columns and labels:
[1] = Body weight and behavior during the dosing period; assay type: in vivo, mouse; details: intraperitoneal, twice a week over three months, 20 mg/kg/day; young and old mice
Procedure: OK-1 manufactured in Manufacturing Example 1 was intraperitoneally administered to young and old mice twice a week over three months. The dosage was 20 mg/kg/day.

old mice = experiment: Muscle mass by MRI (volume of right gastrocnemius muscle/soleus muscle), with/without treadmill exercise; assay type: in vivo, mouse
Procedure: OK-1 was then intraperitoneally administered to each mouse twice a week at 20 mg/kg/day over 8 weeks (i.e., until reaching 23 week old and 88 week old, respectively). Treadmill exercise was conducted three times a week at 8 m/minute for 5 minutes→15 m/minute for 35 minutes while administering OK-1 twice a week at 20 mg/kg/day over 5 weeks (i.e., until reaching 28 week old and 93 week old, respectively). The muscle mass was then measured with the following equipment and conditions through MRI (FIG. 1B). MRI (MRminiSA1545, Japan REDOX) (magnetic flux density: 1.5 tesla (permanent magnet) (temporal resolution: 100 ns) was used to capture images of the lower limbs of the mice. The recovered data was converted into dicom data, and the volume of right gastrocnemius muscle/soleus muscle was quantified with Osirix Lite.

[2] = tested on: Diabetes mouse models (e.g., KK/TaJcl); experiment: Diabetes mouse model; assay type: in vivo; details: administered versus non-administered group
Procedure: Diabetes mouse models (e.g., KK/TaJcl) were divided into two groups. OK was administered to one of the groups, and OK was not administered to the other group.

myoblast C2C12 = experiment: Gene analysis (RNA-seq) in C-82 treated myoblasts; assay type: cell-based, mouse; details: C-82 treated C2C12
Procedure: This Example investigated what gene modulation C-82 is involved with in myoblast C2C12 to identify a gene that is useful in the diagnosis or treatment of sarcopenia.
Gene analysis (RNA-seq) in C-82 treated myoblasts was performed by the same method as Example 2.

[3] = tested on: 74-week old mice (C57B16/J); experiment: Grip strength test (smart grip strength meter); assay type: in vivo, mouse; details: 7 mg/kg and 20 mg/kg intraperitoneal twice a week for 6 weeks
Procedure: 74-week old mice (C57B16/J) were purchased from Oriental Yeast. Various concentrations (0 mg/kg (control), 7 mg/kg, and 20 mg/kg) of C-82 were administered twice a week through a 6-week intraperitoneal administration until reaching 80-week old. Muscle strength (endurance) and grip strength of mice administered with C-82 were then measured through a treadmill test and smart grip strength meter for rats and mice (Muromachi Kikai Co., Ltd.), respectively. The treadmill test was conducted under the same condition as Example 1.

Compound | change in body weight and behavioral abnormality during the dosing period [1] | muscle mass (MRI), combined use of administration with exercise (old mice; 20 mg/kg/day twice a week plus treadmill exercise three times a week over 5 weeks) | muscle mass (MRI) (old mice; intraperitoneal 20 mg/kg/day twice a week over 8 weeks, then 5 further weeks) | insulin secretion and insulin resistance [2] | gene group associated with C-82 (upstream transcription factor analysis) (myoblast C2C12) | genes decreased significantly in myoblasts (myoblast C2C12) [genes] | genes increased significantly in myoblasts (myoblast C2C12) [genes] | grip strength [3]
C[C@H]1[C@H]2N(C(=O)CN(C)N2C(=O)NCc2ccccc2)[C@@H](Cc2ccc(OP(=O)(O)O)cc2)C(=O)N1Cc1cccc2cccnc12 [OK-1] | a significant change in body weight and behavioral abnormality were not observed | muscle mass significantly recovers synergistically | increases muscle mass in old mice | at least one of insulin secretion and insulin resistance is improved |  |  |  | 
C[C@H]1[C@H]2N(C(=O)CN(C)N2C(=O)NCc2ccccc2)[C@@H](Cc2ccc(O)cc2)C(=O)N1Cc1cccc2cccnc12 [C-82, (6S,9S)—N-benzyl-6-(4-hydroxybenzyl)-2,9-dimethyl-4,7-dioxo-8-(quinolin-8-ylmethyl)hexahydro-2H-pyrazino[2,1-c][1,2,4]triazine-1(6H)-carboxamide] |  |  |  |  | Nfkb1, Srebf2, Sp1, Trp53, Xbp1, Myod1, Srebf1, Jun, Stat3, Sp3, Myf6, Nr3c1, Foxo3, Nfe212, Myf5, Ahr, Ep300, Myog, and Usf2 | 611 | 581 | a significant difference was not observed in grip strength, a tendency for a concentration dependent increase was observed; also recorded: a significant difference was not observed in grip strength, a tendency of a concentration dependent increase was observed
